Values of other authors as cited in patent publication US11331329B2, “Fucosylated oligosaccharides for prevention of coronavirus infection” (Glycosyn LLC, priority 2020, dated 2022).

Conditions: oral

In the case of 2′-Fucosyllactose [2′-FL], the toxicity (natural component of human milk) is given as “non-toxic” and the “high doses that may lead to mild gut discomfort and a reversible osmotic diarrhea” value (adult) is given as > 10 g per day.
